Assay results from US9580487B2, “Method of treating stomach or bowel-related disorders by administering glucagon-like-peptide-2 (GLP-2) analogues” (Zealand Pharma A/S, priority 2005, dated 2017).

Experiments:
[1] = tested on: male Sprague Dawley rats treated with indomethacin; assay: Indomethacin-induced small intestinal ulcers (model of Crohn's disease), extent of ulceration; type: in vivo; conditions: prednisolone 10 mg/kg vs indomethacin alone
Description: FIG. 13 is a graph illustrating the effect of compound 1848 (SEQ ID NO:36) on small intestinal ulcers induced by indomethacin. Male Sprague Dawley rats were treated with vehicle (saline; group 1) or indomethacin (7 mg/kg s.c., once daily for two days; groups 2-7). Indomethacin was given alone (group 2) or in combination with prednisolone (10 mg/kg s.c.; group 3) or with 8, 40, or 200 nmol/kg compound 1848 (SEQ ID NO:36) s.c. […] (groups 4-6). Finally, one group of rats was treated with combination treatment of prednisolone (10 mg/kg s.c.) and compound 1848 (SEQ ID NO:36), 200 nmol/kg s.c. once daily (group 7). Treatment with compound 1848 (SEQ ID NO:36) was initiated 4 days prior to indomethacin and continued during the two days of indomethacin treatment. On day 3, rats were sacrificed and upon necropsy, the small intestine was gently flushed with 10% formalin and filled with formalin for a period of 5 minutes, after which the intestine was cut open along the antimesenteric margin and suspended on a polypropylene plate. Any remaining intestinal contents were carefully removed with a pair of tweezers. After fixation for another 24 hours at room temperature, the tissue was rinsed in Milli-Q water and surface-stained for 20 minutes with Alcian Green 3BX (Chroma) prepared as a 0.5% solution in 1% acetic acid (Bie & Berntsen). After removal of excess staining solution with Milli-Q water the tissue preparation was transferred to 70% alcohol and analyzed using a stereomicroscope at low magnification (×7). Starting at the pylorus, the small intestine was scanned and the shape (circular vs. linear) and size (circular ulcers: diameter, linear ulcers: length×width) of all ulcers was measured using a standard ruler (resolution: 0.5 mm). An ulcer was defined as an area, which lacked epithelial surface. In healing ulcers only the area that still lacked epithelial surface was regarded an ulcer even if the villus structure was still missing in a larger area. All analysis was performed in a blinded manner. […] Treatment with prednisolone caused a significant reduction in the extent of ulceration by app. 29%. […] Values are means±SEM. * P<0.05 vs. indomethacin (group 2). ^#P<0.05 vs. prednisolone (group 3).
Crohn's disease is a chronic disease that causes episodic inflammation of the small intestine. The effect of the GLP-2 analogue 1848 (SEQ ID NO:36) on small intestinal inflammation in an indomethacin-induced model of Crohn's disease was investigated. We have previously shown that administration of indomethacin (s.c, once daily for 2 days) induces small intestinal inflammation characterized by ulcerations and, increases in the pro-inflammatory cytokine, tumour necrosis factor alpha (TNF-α).
To determine the effect of ZP1848 (SEQ ID NO:36) on ulceration 1848 (SEQ ID NO:36) (8, 40 and 200 nmol/kg, s.c, twice daily (9:00 and 16:00)) was given for 4 days prior to the first dose of indomethacin and for an additional two days together with indomethacin. The corticosteroid, prednisolone (10 mg/kg, p.o) was used as a positive control since corticosteroids are commonly used in the treatment of active inflammation in Crohn's disease. In addition a group of animals were given both 1848 (SEQ ID NO:36) (200 nmol/kg) and prednisolone to determine the effects of a combination treatment. Twenty four hours after the last dose of 1848 (SEQ ID NO:36) had been given the animals were sacrificed the small intestine was gently flushed clean and fixed. To determine the extent of ulceration the intestine was cut open along the antimesenteric margin, suspended on a polypropylene plate and surface-stained with Alcian Green 3BX. Starting at the pylorus, the small intestine was scanned and the shape (circular vs. linear) and size (circular ulcers: diameter, linear ulcers: length×width) of all ulcers was measured using a standard ruler (resolution: 0.5 mm). An ulcer was defined as an area, which lacked epithelial surface. […]

TNF-α = assay: Small intestinal tissue content of TNF-α (ELISA) in rats with indomethacin-induced inflammation; type: in vivo; conditions: prednisolone 10 mg/kg alone
Description: Male Sprague Dawley rats were treated with vehicle (saline; group 1) or indomethacin (7 mg/kg s.c., once daily for two days; groups 2-7). […] On day 3, rats were sacrificed and upon necropsy, the small intestine was divided into three segments of equal length corresponding to 1) duodenum and proximal jejunum, 2) mid and distal jejunum and 3) ileum. Samples were immediately snap-frozen in liquid N2 and stored at −80° C. until analysis. Homogenization and extraction of cellular protein from small intestinal segments was performed according to the following procedure: Tissue segments were weighed and added a volume of 1.5 ml per gram tissue ice-cold (4° C.) extraction buffer (10 mM Tris-HCl (Sigma) and 1 mM EDTA (J. T. Baker), (pH 7.6) with 0.05% sodium azide (Fluka), 1% Tween-80 (Fluka), 2 mM phenylmethylsulfonyl fluoride (PMSF, Fluka) and 1 μg/ml of each of the protease inhibitors aprotinin, leupeptin and pepstatin A (Roche Diagnostics)). The tissue was cut into small bits with a pair of scissors and homogenized three times for 20 seconds (IKA UltraTurrax T25 homogenizer, Janke & Kunkel) at 9500 rpm with intermittent cooling on ice for 30 seconds. The homogenate was centrifuged at 20.000×g for 30 minutes at 4° C., the supernatant was collected and stored at −20° C. until analysis for TNF-α small intestinal protein extractions were analyzed for TNF-α using a commercially available ELISA kit according to the manufacturer's instructions (Rat Tumor Necrosis Factor-α UltraSensitive ELISA kit, Biosource International Inc.). The assay has a detection limit of 0.7 pg/ml. Protein extractions were analyzed for total protein content using a commercially available assay (DC protein assay, Bio-Rad Laboratories Ltd.). Small intestinal tissue levels of TNF-α were expressed relative to total protein. […] Values are means±SEM. * P<0.05 vs. indomethacin (group 2).
At sacrifice, however the small intestine was separated into three segments of equal length (proximal, mid and distal). TNF-α concentrations were measured in each of the individual segments using a commercially available ELISA kit.

[2] = in vivo; cited from earlier work
[3] = tested on: colonic neoplasms in mice; conditions: cited from earlier work

Compound | Reduction in the extent of ulceration [1] | Tissue levels of TNF-α, all 3 segments (TNF-α) | half life [2] | Growth of colonic neoplasms [3]
C[C@]12C=CC(=O)C=C1CC[C@@H]1[C@@H]2[C@@H](O)C[C@@]2(C)[C@H]1CC[C@]2(O)C(=O)CO [prednisolone, reference compound] | ~29% | did not significantly affect tissue levels of TNF-α |  | 
H-His-Ala-Asp-Gly-Ser-Phe-Ser-Asp-Glu-Met-Asn-Thr-Ile-Leu-Asp-Asn-Leu-Ala-Ala-Arg-Asp-Phe-Ile-Asn-Trp-Leu-Ile-Gln-Thr-Lys-Ile-Thr-Asp-OH [GLP-2] |  |  | about 7 minutes | accelerate the growth of colonic neoplasms in mice
